Data set [1] is described as follows: Measurement of free bromine in aqueous phase. It counts as physicochemical. The following applies: stirred 24 hrs, top aqueous phase, wt %. From the text: The forward operation of a bromine-containing battery generally involves the conversion of elemental bromine to ionic bromine. The quat/Br2 complex results from an equilibrium reaction in which the Br2 is released from the complex as the concentration of free Br2 in the aqueous electrolyte drops during battery operation. In its fully charged state, the electrolyte solution inevitably contains some degree of uncomplexed bromine. A measure of a quat's ability to complex elemental bromine is the amount of elemental bromine left in solution when the complexation reaction proceeds to equilibrium. Such bromine is referred to as “free bromine.” Measurement of free bromine in aqueous phase is set forth in Example 1.
Two slightly different methods were used to prepare the electrolyte compositions, A) one containing 0.7M quat and B) the other containing 0.8M quat. In composition A, 2.0 moles of bromine was added to an aqueous solution containing 0.5 moles of zinc bromide and 0.7 moles of the quat. The two-phase mixture was stirred for 24 hrs. and then the phases were allowed to settle. The top aqueous phase was sampled for free bromine measurement. In composition B, 1.44 moles of bromine was added to an aqueous solution containing 0.5 moles of zinc bromide, 0.4 moles of zinc chloride and 0.8 moles of the quat. The top aqueous phase obtained after stirring for 24 hrs. was used for free bromine measurement.
A 250-ml Erlenmeyer flask was charged with 50 ml of deionized water and weighed (A). A sample of the clear aqueous phase was passed through glass wool to remove any suspended organic phase and then added to the Erlenmeyer flask. The flask was weighed again (B) and the difference in weight (B-A) was noted as the weight of the sample. About 20 ml of 20% potassium iodide solution followed by about 5 ml of starch solution was added to the flask. The resulting dark mixture was titrated against 0.02N sodium thiosulfate solution. The end-point was the disappearance of purple color. Free bromine (wt %) was calculated in the following manner:
Wt % free Br2=Volume (ml) of sodium Thiosulfate×Normality of Sodium thisosulfate/Sample Weight.

Data set [2] is described as follows: Cloud point determination (solubility in ZnBr2 solution). Particulars: for Solubility in ZnBr2 Cloud Point: 0.7 M quat in 2.5M Zinc Bromide water solution.
Protocol: By “cloud point” is meant the cloud point of an aqueous solution containing 0.7 M complexing agent and 2.5 M zinc bromide.
A 0.7M quaternary ammonium bromide in 2.5M Zinc Bromide water solution was prepared. • 2. The solution was transferred to a jacketed flask with a stirring bar and temperature monitor. • 3. The solution was warmed to 15° C. above the expected cloud point. If necessary, any moisture or impurities were removed by filtration. • 4. The solution was stirred, with speed adjustment to about 250 rpm, while avoiding the formation of bubbles. • 5. The solution was cooled gradually (cooling rate of about 1° C./5 min). • 6. The sample was inspected carefully for signs of cloudiness, and the temperature at which cloudiness was observed was recorded to the nearest 0.1° C.
Data set [3] is described as follows: Free bromine in electrolyte with chloroquat or bromoquat (Example 8). It counts as physicochemical. Particulars: 0.84 M zinc bromide, 0.8 M quat, 1.44 M bromine; stirred for 24 hrs at 35° C. As for the experimental part: Chloride ions are added to the electrolyte in amounts sufficient to reduce the amount of free bromine present and increase the electrolyte conductivity during charging of the cell. Chloride ions in the electrolyte may come from zinc chloride or quaternary ammonium chloride complexing agent.
Experiment 1 of Example 8: An aqueous electrolyte system was prepared having 0.84 M zinc bromide, 0.8 NI chloroquat (N-methyl, N-butyl pyrrolidinium chloride) and 1.44 M bromine. After the sample was stirred for 24 hrs at 35° C., the amount of free bromine present in the electrolyte was 0.26%.
Experiment 2 of Example 8: An aqueous electrolyte system was prepared having 0.84 M zinc bromide, 0.8 M bromoquat (N-methyl, N-butyl pyrrolidinium bromide) and 1.44 NI bromine. After the sample was stirred for 24 hrs at 35° C., the amount of free bromine present in the electrolyte was 0.25%.

Setting [4] is: 0.7 M quat (composition A: 0.5 moles zinc bromide, 2.0 moles bromine).
Where [5] appears, read: 0.8 M quat (composition B: 0.5 moles zinc bromide, 0.4 moles zinc chloride, 1.44 moles bromine).

Where “and” joins values, the source holds several entries; their conditions need not be identical. Equal entries are not always repeated.

Take `CCC[N+](CC)(CC)CC.[Br-]` [Compound 5, triethylpropylammonium bromide]: the “Free Br2” value in data set [1] (setting [4]) is 0.089% and 0.7 M 0.089%. Moreover, in data set [2], the “Solubility in ZnBr2 Cloud Point” value is reported as 0.7 M, 41.2 C.

As to `CCC[N+](C)(C)CC.[Br-]` [DMEP, dimethylethylpropyl ammonium bromide, reference compound], the cloud point entry in data set [2] (solution 0.7M in DMEP and 2.5M in ZnBr2) was “about 23.2 °C”.

Consider `CC[N+](CC)(CC)CCOC.[Br-]` [Compound 2, (2-methoxyethyl)-triethylammonium bromide], for which the “Free Br2” value was 0.658% and 0.7 M 0.658% in data set [1] (setting [4]); 0.467% and 0.8 M 0.467% in data set [1] (setting [5]).

As to `CCCC[N+]1(C)CCCC1.[Cl-]` [chloroquat, N-methyl, N-butyl pyrrolidinium chloride], in data set [3], the “amount of free bromine present in the electrolyte” value came out at 0.26%.

On to `CCC[N+]1(CC)CCCCC1` [Compound 10, EthyPropyl Piperidinium Bromide], for which the “Free Br2” value in data set [1] (setting [5]) is 0.026% and 0.8 M 0.026%. The “Solubility in ZnBr2 Cloud Point” value in data set [2] was 0.7 M, 45.8 C.

For `CCCC[N+]1(C)CCCC1.[Br-]` [bromoquat, N-methyl, N-butyl pyrrolidinium bromide], the “amount of free bromine present in the electrolyte” value in data set [3] amounted to 0.25%.

As for `CC[N+]1(CC)CCCCC1.[Br-]` [Compound 9, Diethyl Piperidinium Bromide], in data set [1] (setting [5]), the “Free Br2” value was 0.26% and 0.8 M 0.26%. Also, the “Solubility in ZnBr2 Cloud Point” value in data set [2] is reported as 0.7 M, 11.9 C.

Turning to `CC[N+](C)(C)CCOCC[N+](C)(C)CC.[Br-].[Br-]` [Compound 14, Dimethylethyl Gemini Quat Bromide with Diethylether Linkage], the “Free Br2” value in data set [1] (setting [4]) was 0.71% and 0.7 M 0.71%. Moreover, the “Solubility in ZnBr2 Cloud Point” value in data set [2] was 0.7 M, 48.2 C.

As for `CC[N+](C)(CC)CCOC.[Br-]` [Compound 4, diethylmethyl-(2-methoxyethyl)ammonium bromide], the “Free Br2” value in data set [1] (setting [4]) was 0.7 M 0.70%.

In the case of `CCCC[N+](C)(C)CCOC.[Br-]` [Compound 1, Dimethylbutylether Quat Bromide], in data set [1] (setting [4]), the “Free Br2” value is listed as 0.7 M 0.28%. For the same compound, the “Solubility in ZnBr2 Cloud Point” value in data set [2] is reported as 0.7 M, 29 C.

For the compound `CC[N+](C)(C)CCCC[N+](C)(C)CC.[Br-].[Br-]` [Compound 15, Dimethylethyl Gemini Quat Bromide with Butyl Linkage], in data set [1] (setting [4]), the “Free Br2” value is 0.59% and 0.7 M 0.59%. Moreover, in data set [2], the “Solubility in ZnBr2 Cloud Point” value is 0.7 M, 89.2 C.
